Test results reported in article PMC5684323 (2017).

Assays:
[1] = tested on: ESE2 (SPR) (RNA, single strand) AAAAAGAAGGAAGG; test: SPR (Biacore), immobilised RNA; conditions: 150 mM NaCl, no Mg2+ (35 mM EDTA); 10 mM HEPES pH 7.4, 0.05% P20, 0.1% DMSO, 25 °C; 10 µM tested
[2] = tested on: ESE2 RNA (NMR) (RNA, single strand) AAAAAGAAGGAAGG; test: 1H NMR titration; conditions: 50 mM NaCl; 10 mM MES pH 5.5, 10% D2O, 310 K
[3] = tested on: STRN3 "ESE" (RNA, single strand) AAGAAGGAACGAAAGGGGAAGAAAGGGG; test: SPR (Biacore), immobilised RNA; conditions: 150 mM NaCl, no Mg2+ (35 mM EDTA); 10 mM HEPES pH 7.4, 0.05% P20, 0.1% DMSO, 25 °C; 10 µM tested
[4] = tested on: Exon 7 (RNA, mRNA element) UACAGGGUUUUAGACAAAAUCAAAAAGAAGGAAGGUGCUCACAUUCCUUAAAUUAAGGAGUAAG; test: SPR (Biacore), immobilised RNA; conditions: 150 mM NaCl, no Mg2+ (35 mM EDTA); 10 mM HEPES pH 7.4, 0.05% P20, 0.1% DMSO, 25 °C; 10 µM tested

SMILES: Cc1cn2cc(-c3cc(=O)n4cc(N5CCN(C(=O)CCN)CC5)ccc4n3)cc(F)c2n1
- binding [1]: weak
- binding [2]: yes
- binding [3]: weak

SMILES: Cc1cn2cc(-c3cc(=O)n4cc(N5CCN(C)CC5)ccc4n3)cc(F)c2n1
- binding [1]: yes
- binding [2]: yes
- binding [3]: yes
- binding [4]: yes
